Measurements taken from US10934309B2, “Tricyclic quinone derivative” (Boston Biomedical, Inc., priority 2014, dated 2021).

Key:
Format in all cases: cell-based, human
[1] = system: HCT-116 cells; assay: Proliferation inhibition assay of cancer cells (Test Example 1), HCT-116; settings: Homo sapiens, HCT-116, 96 h, HCT-116 cells, cultured for 4 days, Cell Titer-Glo; read-out: IC50 (μM) HCT; concentration for 50% inhibition of cell proliferation (Bulk IC50 value)
Method: (§1) HCT-116 cells (derived from human colon adenocarcinoma), HT-29 cells (derived from human colon cancer), and FaDu cells (derived from human hypopharynx cancer) were obtained from American Type Culture Collection (ATCC). […] After cells were seeded at 300-600 cells/well onto black μClear-plate 384 well (Greiner bio-one Cat. No. 781091), a test substance was added such that the final concentration of DMSO is 0.1%, and cultured for 4 days. […] A test shown in Test example 1 was carried out for compounds obtained in the Examples.

[2] = system: FaDu cells; assay: Proliferation inhibition assay of cancer cells (Test Example 1), FaDu; settings: Homo sapiens, FaDu, 96 h, FaDu cells, cultured for 4 days, Cell Titer-Glo; read-out: IC50 (μM) FaDu; concentration for 50% inhibition of cell proliferation (Bulk IC50 value)
Method: as §1

[3] = system: HT-29 cells; assay: Proliferation inhibition assay of cancer cells (Test Example 1), HT-29; settings: Homo sapiens, HT-29, 96 h, HT-29 cells, cultured for 4 days, Cell Titer-Glo; read-out: IC50 (μM) HT; concentration for 50% inhibition of cell proliferation (Bulk IC50 value)
Method: as §1

[4] = system: HCT-116 cells; assay: Inhibition assay of cancer cell sphere-forming ability (Test Example 2), HCT-116; settings: Homo sapiens, HCT-116, 96 h, HCT-116 cells, Ultra-Low Attachment plate, serum-free DMEM/F12 with B27, EGF, bFGF, insulin, 4 days, Cell Titer-Glo; read-out: IC50 (μM) HCT; concentration for 50% inhibition of cell proliferation (Sphere IC50 value)
Method: (§2) HCT-116 cells (derived from human colon adenocarcinoma), HT-29 cells (derived from human colon cancer), FaDu cells (derived from human hypopharynx cancer) were obtained from American Type Culture Collection (ATCC). […] HCT-116 cells, HT-29 cells, and FaDu cells were seeded onto 384 Well Black Clear Bottom Ultra-Low Attachment Microplate (Corning Cat. […] A test substance was added so that the final concentration of DMSO is 0.1%, and then cultured for 4 days. […] A test shown in Test example 2 was carried out for compounds obtained in the Examples.

[5] = system: FaDu cells; assay: Inhibition assay of cancer cell sphere-forming ability (Test Example 2), FaDu; settings: Homo sapiens, FaDu, 96 h, FaDu cells, Ultra-Low Attachment plate, serum-free DMEM/F12 with B27, EGF, bFGF, insulin, 4 days, Cell Titer-Glo; read-out: IC50 (μM) FaDu; concentration for 50% inhibition of cell proliferation (Sphere IC50 value)
Method: as §2

[6] = system: HT-29 cells; assay: Inhibition assay of cancer cell sphere-forming ability (Test Example 2), HT-29; settings: Homo sapiens, HT-29, 96 h, HT-29 cells, Ultra-Low Attachment plate, serum-free DMEM/F12 with B27, EGF, bFGF, insulin, 4 days, Cell Titer-Glo; read-out: IC50 (μM) HT; concentration for 50% inhibition of cell proliferation (Sphere IC50 value)
Method: as §2

[7] = system: cancer cells; assay: Proliferation inhibition test of cancer cells, overall statement on Table 1; settings: summary of Table 1
Method: HCT-116 cells (derived from human colon adenocarcinoma), HT-29 cells (derived from human colon cancer), and FaDu cells (derived from human hypopharynx cancer) were obtained from American Type Culture Collection (ATCC). HCT-116 cells and HT-29 cells were cultured using McCoy's 5a medium containing 10% fetal bovine serum (FBS) and 1% penicillin/streptomycin, and FaDu cells were cultured using MEM medium containing 10% FBS, 1% non-essential amino acid, 1% sodium pyruvate, and 1% penicillin/streptomycin, respectively, at 37° C. in the presence of 5% CO2. After cells were seeded at 300-600 cells/well onto black μClear-plate 384 well (Greiner bio-one Cat. No. 781091), a test substance was added such that the final concentration of DMSO is 0.1%, and cultured for 4 days. The number of living cells was then counted using Cell Titer-Glo (Registered trademark) Luminescent Cell Viability Assay (Promega) to calculate a concentration for 50% inhibition of cell proliferation of respective test substances (Bulk IC50 value; μM).

[8] = system: cancer cells; assay: Inhibition test of cancer cell sphere-forming ability, overall statement on Table 2; settings: summary of Table 2
Method: HCT-116 cells (derived from human colon adenocarcinoma), HT-29 cells (derived from human colon cancer), FaDu cells (derived from human hypopharynx cancer) were obtained from American Type Culture Collection (ATCC). HCT-116 cells and HT-29 cells were cultured using McCoy's 5a medium containing 10% fetal bovine serum (FBS) and 1% penicillin/streptomycin, and FaDu cells were cultured using MEM medium containing 10% FBS, 1% non-essential amino acid, 1% sodium pyruvate, and 1% penicillin/streptomycin, respectively, at 37° C. in the presence of 5% CO2. HCT-116 cells, HT-29 cells, and FaDu cells were seeded onto 384 Well Black Clear Bottom Ultra-Low Attachment Microplate (Corning Cat. No. 3827) using DMEM/F12 medium containing 2% B27 supplement (GIBCO), 20 ng/mL epidermal growth factor (EGF) (peprotech), 10 ng/mL basic fibroblast growth factor (bFGF) (peprotech), 5 μg/mL insulin (Sigma), and 1% penicillin/streptomycin to be 350-800 cells/well. A test substance was added so that the final concentration of DMSO is 0.1%, and then cultured for 4 days. The number of living cells was then counted using Cell Titer-Glo (registered trademark) Luminescent Cell Viability Assay (Promega) to calculate the concentration for 50% inhibition of cell proliferation of respective test substances (Sphere IC50 value; μM).

| SMILES | IC50 [1] [µM] | IC50 [2] [µM] | IC50 [3] [µM] | IC50 [4] [µM] | IC50 [5] [µM] | IC50 [6] [µM] | effect on the inhibition of the proliferation of cancer cells (in words) [7] | effect to inhibit cancer cell sphere-forming ability (in words) [8] |
| --- | --- | --- | --- | --- | --- | --- | --- | --- |
| O=C1c2cnccc2C(=O)c2sc(CNCC(F)F)cc21 [Example 26, 2-{[(2,2-difluoroethyl)amino]methyl}thieno[2,3-g]isoquinoline-4,9-dione] | 0.09 | 0.02 | 0.45 | 0.17 | < 0.01 | 0.07 | – | particularly strong effect |
| CCN(CCOC)Cc1cc2c(s1)C(=O)c1ccncc1C2=O [Example 24, 2-{[ethyl(2-methoxyethyl)amino]methyl}thieno[2,3-g]isoquinoline-4,9-dione] | 0.34 | 0.03 | 0.65 | 0.43 | < 0.01 | 0.18 | – | particularly strong effect |
| CC(=O)N1CCN(Cc2cc3c(s2)C(=O)c2ccncc2C3=O)CC1 [Example 27, 2-[(4-acetylpiperazin-1-yl)methyl]thieno[2,3-g]isoquinoline-4,9-dione] | 0.5 | 0.03 | 0.4 | 0.47 | < 0.01 | 0.06 | – | particularly strong effect |
| CC(C)(O)c1cc2c(s1)C(=O)c1ccncc1C2=O [Example 15, 2-(2-hydroxypropan-2-yl)thieno[2,3-g]isoquinoline-4,9-dione] | 0.34 | 0.04 | 0.61 | 0.4 | < 0.01 | 0.46 | – | particularly strong effect |
| CC(O)c1cc2c(s1)C(=O)c1ccncc1C2=O (stereo not shown) [Example 13, 2-(1-hydroxyethyl)thieno[2,3-g]isoquinoline-4,9-dione] | 0.06 | 0.02 | 0.37 | 0.05 | < 0.01 | 0.06 | – | particularly strong effect |

The next compounds have a lower IC50 [1] than those just listed; values first:

| IC50 [1] [µM] | IC50 [2] [µM] | IC50 [3] [µM] | IC50 [4] [µM] | IC50 [5] [µM] | IC50 [6] [µM] | SMILES | effect on the inhibition of the proliferation of cancer cells (in words) [7] | effect to inhibit cancer cell sphere-forming ability (in words) [8] |
| --- | --- | --- | --- | --- | --- | --- | --- | --- |
| 0.05 | < 0.01 | 0.18 | 0.04 | < 0.01 | 0.03 | CC(=O)c1cc2c(s1)C(=O)c1ccncc1C2=O [Example 12, 2-acetylthieno[2,3-g]isoquinoline-4,9-dione] | particularly strong effect | particularly strong effect |
| 0.05 | 0.05 | 0.54 | 0.06 | 0.04 | 0.24 | O=C1c2cnccc2C(=O)c2oc(C(F)F)cc21 [Example 63, 2-(difluoromethyl)furo[2,3-g]isoquinoline-4,9-dione] | particularly strong effect | particularly strong effect |
| 0.05 | 0.06 | 0.58 | 0.04 | 0.01 | 0.04 | O=C1c2cc(C(=O)N3CCOCC3)oc2C(=O)c2sccc21 [Example 55, 2-(morpholin-4-ylcarbonyl)thieno[3,2-f][1]benzofuran-4,8-dione] | – | particularly strong effect |
| 0.04 | < 0.01 | 0.31 | 0.03 | < 0.01 | < 0.01 | CCc1noc(-c2cc3c(s2)C(=O)c2ccncc2C3=O)n1 [Example 31, 2-(3-ethyl-1,2,4-oxadiazol-5-yl)thieno[2,3-g]isoquinoline-4,9-dione] | particularly strong effect | particularly strong effect |
| 0.01 | 0.01 | 0.57 | 0.02 | 0.02 | 0.07 | CC(=O)c1cc2c(s1)C(=O)c1cccnc1C2=O [Example 1, 2-acetylthieno[2,3-g]quinoline-4,9-dione] | particularly strong effect | – |
